The nature of the data set: recombinant barcode read abundance after kanamycin selection (control-corrected) (log10(CPM+1)); higher = more efficient recombination; sequences stand for … in AGTGCAGAGAAAATCGGCCAGTTTTCTCTGCCTGCAGTCCGCATGCCGT…AGATTTATGCAGCGGACTGCCTTTCTCCCAAAGTGATAAACCGGACAGTATCATGGACCGGTTTTCCCGGTAATCCGTATTTGCAAGGTTGGTTTCACT; site = the 11-nt target. An outline of the steps: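 Recombination efficiency comes from barcode counts at recombinant junctions, converted to counts per million, averaged and corrected against the control. Values appear as log10(CPM+1). They were obtained from a pooled E. coli screen in which each oligo paired a target with an IS621 bridge RNA target-binding loop, and cells were plated in duplicate on chloramphenicol/ampicillin LB agar or on chloramphenicol/ampicillin/kanamycin with 0.1 mM IPTG.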
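Further: IS621 recombinase and bridge RNA in Escherichia coli cells.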

“TCGTGCCCTTGGGTTCTAACCTGTTGCCT (site TCGTGCACTAG)”: the “recombinant barcode read abundance (log10)” value amounted to 0.0746.
In the case of “TCGTGCCCTTGGGTTCTAACCTGTTGCCT (site TCGTGCCCTAG)” it was 0.398; in that of “TCGTGCCCTTGGGTTCTAACCTGTTGCCT (site TCGTGCGCTAG)”, 0.165.
Take “TCGTGCCCTTGGGTTCTAACCTGTTGCCT (site TCGTGCTCTAG)”: the “recombinant barcode read abundance (log10)” value was 0.0522.
In the case of “TCGTTCGCTTGGGTTCTAACCTGTTGCCG (site GTCAGATCTAA)” it was 0.37; in that of “TCGTTCGCTTGGGTTCTAACCTGTTGCCG (site TCGTTCGCTCG)”, 0.0881; in that of “TCTAAACCTTGGGTTCTAACCTGTTGCAT (site TCTAAACCTAT)”, 0.197.
As for “TCTAAACCTTGGGTTCTAACCTGTTGCAT (site TCTAACCCTAT)”, the “recombinant barcode read abundance (log10)” value was found to be 0.142.
On to “TCTAAACCTTGGGTTCTAACCTGTTGCAT (site TCTAAGCCTAT)”, for which the “recombinant barcode read abundance (log10)” value came out at 0.0795.
In the case of “TCTAAACCTTGGGTTCTAACCTGTTGCAT (site TCTAATCCTAT)” it was 0.229; in that of “TCTAAGACTTGGGTTCTAACCTGTTGCGC (site CTACCCTCTAG)”, 0.0242.
In the case of “TCTAAGACTTGGGTTCTAACCTGTTGCGC (site TCTAAGACTGC)” it was 1.26.
In the case of “TCTAAGCCTTGGGTTCTAACCTGTTGCAT (site TCTAAACCTAT)” it was 0.152; in that of “TCTAAGCCTTGGGTTCTAACCTGTTGCAT (site TCTAACCCTAT)”, 0.259.
Consider “TCTAAGCCTTGGGTTCTAACCTGTTGCAT (site TCTAAGCCTAT)”, for which the “recombinant barcode read abundance (log10)” value was 0.531.
Take “TCTAAGCCTTGGGTTCTAACCTGTTGCAT (site TCTAATCCTAT)”: the “recombinant barcode read abundance (log10)” value turned out to be 0.0292.
In the case of “TCTACCTCTTGGGTTCTAACCTGTTGCCT (site TCTACATCTAG)” it was 0.0227; in that of “TCTACCTCTTGGGTTCTAACCTGTTGCCT (site TCTACCTCTAG)”, 1.19; in that of “TCTACCTCTTGGGTTCTAACCTGTTGCCT (site TCTACGTCTAG)”, 0.102.
In the case of “TCTACCTCTTGGGTTCTAACCTGTTGCCT (site TCTACTTCTAG)” it was 0.0484; in that of “TCTACGTCTTGGGTTCTAACCTGTTGCCT (site TCTACATCTAG)”, 0.0403; in that of “TCTACGTCTTGGGTTCTAACCTGTTGCCT (site TCTACCTCTAG)”, 0.00686.
In the case of “TCTACGTCTTGGGTTCTAACCTGTTGCCT (site TCTACGTCTAG)” it was 0.168.
Consider “TCTACGTCTTGGGTTCTAACCTGTTGCCT (site TCTACTTCTAG)”, for which the “recombinant barcode read abundance (log10)” value was 0.126.
In the case of “TCTCACCCTTGGGTTCTAACCTGTTGCCT (site TCTCACCCTAG)” it was 0.516.
For the sequence “TCTCACCCTTGGGTTCTAACCTGTTGCCT (site TCTGATCCTAG)”, the “recombinant barcode read abundance (log10)” value is 0.0773.
In the case of “TCTCATTCTTGGGTTCTAACCTGTTGCGT (site TCTAATTCTAC)” it was 0.0146.
In the case of “TCTCATTCTTGGGTTCTAACCTGTTGCGT (site TCTCATTCTAC)” it was 0.937; in that of “TCTCATTCTTGGGTTCTAACCTGTTGCGT (site TCTGATTCTAC)”, 0.163.
In the case of “TCTCATTCTTGGGTTCTAACCTGTTGCGT (site TCTTATTCTAC)” it was 0.0829.
On to “TCTCCGCCTTGGGTTCTAACCTGTTGCCT (site TCTCAGCCTAG)”, for which the “recombinant barcode read abundance (log10)” value was 0.139.
In the case of “TCTCCGCCTTGGGTTCTAACCTGTTGCCT (site TCTCCGCCTAG)”, the “recombinant barcode read abundance (log10)” value was 0.431.
As for “TCTCCGCCTTGGGTTCTAACCTGTTGCCT (site TCTCGGCCTAG)”, the “recombinant barcode read abundance (log10)” value was 0.0901.
In the case of “TCTCCGCCTTGGGTTCTAACCTGTTGCCT (site TCTCTGCCTAG)” it was 0.0964; in that of “TCTCGATCTTGGGTTCTAACCTGTTGCAT (site CCTCGATCTAT)”, 0.0525.
In the case of “TCTCGATCTTGGGTTCTAACCTGTTGCAT (site TCTCGATCTAT)” it was 0.273.
In the case of “TCTCGTCCTTGGGTTCTAACCTGTTGCTA (site AGCAACACTCT)” it was 0.226; in that of “TCTCGTCCTTGGGTTCTAACCTGTTGCTA (site TCTCGTCCTTA)”, 0.0623; in that of “TCTCTGCCTTGGGTTCTAACCTGTTGCCT (site TCTCAGCCTAG)”, 0.277.
Turning to “TCTCTGCCTTGGGTTCTAACCTGTTGCCT (site TCTCCGCCTAG)”, the “recombinant barcode read abundance (log10)” value is 1.15.
In the case of “TCTCTGCCTTGGGTTCTAACCTGTTGCCT (site TCTCGGCCTAG)” it was 0.108.
For “TCTCTGCCTTGGGTTCTAACCTGTTGCCT (site TCTCTGCCTAG)”, the “recombinant barcode read abundance (log10)” value stood at 0.208.
For “TCTGAAACTTGGGTTCTAACCTGTTGCTT (site GACACCTCTCG)”, the “recombinant barcode read abundance (log10)” value was 0.0724.
In the case of “TCTGAAACTTGGGTTCTAACCTGTTGCTT (site TCTGAAACTAA)” it was 0.314; in that of “TCTGAGGCTTGGGTTCTAACCTGTTGCTG (site TCAGAGGCTCA)”, 0.263; in that of “TCTGAGGCTTGGGTTCTAACCTGTTGCTG (site TCCGAGGCTCA)”, 0.129.
For “TCTGAGGCTTGGGTTCTAACCTGTTGCTG (site TCGGAGGCTCA)”, the “recombinant barcode read abundance (log10)” value was found to be 0.0364.
In the case of “TCTGAGGCTTGGGTTCTAACCTGTTGCTG (site TCTGAGGCTCA)” it was 0.455.
“TCTGCGACTTGGGTTCTAACCTGTTGCCT (site TCAGCGACTAG)”: the “recombinant barcode read abundance (log10)” value amounted to 0.0737.
With “TCTGCGACTTGGGTTCTAACCTGTTGCCT (site TCCGCGACTAG)”, the “recombinant barcode read abundance (log10)” value was found to be 0.455.
In the case of “TCTGCGACTTGGGTTCTAACCTGTTGCCT (site TCGGCGACTAG)” it was 0.114.
In the case of “TCTGCGACTTGGGTTCTAACCTGTTGCCT (site TCTGCGACTAG)” it was 0.265.
In the case of “TCTGGGGCTTGGGTTCTAACCTGTTGCCT (site ACTGGGGCTTG)” it was 0.0588; in that of “TCTGGGGCTTGGGTTCTAACCTGTTGCCT (site TCTGGGGCTAG)”, 0.0357; in that of “TCTGGGGCTTGGGTTCTAACCTGTTGCGG (site TCTGGGGCTCA)”, 0.376.
With “TCTGGGGCTTGGGTTCTAACCTGTTGCGG (site TCTGGGGCTCC)”, the “recombinant barcode read abundance (log10)” value came to 2.61.
In the case of “TCTGGGGCTTGGGTTCTAACCTGTTGCGG (site TCTGGGGCTCG)” it was 0.271; in that of “TCTGGGGCTTGGGTTCTAACCTGTTGCGG (site TCTGGGGCTCT)”, 2.22; in that of “TCTGTAACTTGGGTTCTAACCTGTTGCCT (site CAATCCTCTTA)”, 0.183.
In the case of “TCTGTAACTTGGGTTCTAACCTGTTGCCT (site TCTGTAACTAG)” it was 0.421; in that of “TCTGTGTCTTGGGTTCTAACCTGTTGCTA (site ATATCAACTCG)”, 0.0225.
In the case of “TCTGTGTCTTGGGTTCTAACCTGTTGCTA (site TCTGTGTCTTA)” it was 1.46; in that of “TCTTATACTTGGGTTCTAACCTGTTGCAT (site TCTTATACTAC)”, 0.0107.
On to “TCTTATACTTGGGTTCTAACCTGTTGCAT (site TCTTATACTAT)”, for which the “recombinant barcode read abundance (log10)” value is 0.186.
Consider “TCTTGACCTTGGGTTCTAACCTGTTGCTT (site GGCACCACTCG)”, for which the “recombinant barcode read abundance (log10)” value was 0.063.
In the case of “TCTTGACCTTGGGTTCTAACCTGTTGCTT (site TCTTGACCTAA)” it was 0.242; in that of “TCTTGCTCTTGGGTTCTAACCTGTTGCCT (site AGAACTCCTCA)”, 0.102; in that of “TCTTGCTCTTGGGTTCTAACCTGTTGCCT (site TCTTGCTCTAG)”, 0.574.
In the case of “TCTTGGACTTGGGTTCTAACCTGTTGCTT (site TCTTGGACTAA)” it was 0.421; in that of “TCTTGGACTTGGGTTCTAACCTGTTGCTT (site TCTTGGACTCA)”, 0.145; in that of “TCTTGGACTTGGGTTCTAACCTGTTGCTT (site TCTTGGACTGA)”, 0.0999.
In the case of “TCTTGGACTTGGGTTCTAACCTGTTGCTT (site TCTTGGACTTA)” it was 0.138; in that of “TCTTGGTCTTGGGTTCTAACCTGTTGCTA (site TCTTGGTCTTA)”, 0.0413.
For the sequence “TCTTGGTCTTGGGTTCTAACCTGTTGCTA (site TTATGGTCTTA)”, the “recombinant barcode read abundance (log10)” value came to 0.208.
In the case of “TCTTGTCCTTGGGTTCTAACCTGTTGCGA (site TCTTGTCCTAC)” it was 0.0306.
In the case of “TCTTGTCCTTGGGTTCTAACCTGTTGCGA (site TCTTGTCCTCC)” it was 0.268; in that of “TCTTGTCCTTGGGTTCTAACCTGTTGCGA (site TCTTGTCCTGC)”, 0.343.

These data come from the supplement of paper PMC11208160.
